Measured values taken from patent US12479816B2, “20-HETE formation inhibitors” (UNIVERSITY OF PITTSBURGH—OF THE COMMONWEALTH SYSTEM OF …, priority 2019, dated 2025).
Read-outs that look alike come from different tables or passages of the source.

Assays:
[1] = test system: 20-HETE formation (CYP4) in HLM; assay: Inhibition of 20-HETE formation at 250 or 500 nM in HLM microsomal incubations; format: biochemical, human; conditions: 500 nM compound; HLM 300 μg/ml, AA 100 μM, 20 min
Summary of the method: (§1)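 Microsomes (300 μg/ml) or rCYP4F2 (25 pmol/mL) were incubated with 100 μM arachidonic acid, 1 mM NADPH and test compound in 0.12 M potassium phosphate with 5 mM MgCl2 for 20 min at 37° C. 20-HETE was quantified by UPLC-MS/MS with 20-HETE-d6 internal standard and expressed as percent of vehicle (n=3).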

rCYP4F2 = biological target: T1, rCYP4F2 (Homo sapiens, UniProt P78329); assay: Inhibition of 20-HETE formation at 250 or 500 nM in rCYP4F2 incubations; format: biochemical; conditions: 500 nM compound; rCYP4F2 25 pmol/mL; read-out: rCYP4F2 % inh. @ 500 nM
T1 sequence (P78329 5-520): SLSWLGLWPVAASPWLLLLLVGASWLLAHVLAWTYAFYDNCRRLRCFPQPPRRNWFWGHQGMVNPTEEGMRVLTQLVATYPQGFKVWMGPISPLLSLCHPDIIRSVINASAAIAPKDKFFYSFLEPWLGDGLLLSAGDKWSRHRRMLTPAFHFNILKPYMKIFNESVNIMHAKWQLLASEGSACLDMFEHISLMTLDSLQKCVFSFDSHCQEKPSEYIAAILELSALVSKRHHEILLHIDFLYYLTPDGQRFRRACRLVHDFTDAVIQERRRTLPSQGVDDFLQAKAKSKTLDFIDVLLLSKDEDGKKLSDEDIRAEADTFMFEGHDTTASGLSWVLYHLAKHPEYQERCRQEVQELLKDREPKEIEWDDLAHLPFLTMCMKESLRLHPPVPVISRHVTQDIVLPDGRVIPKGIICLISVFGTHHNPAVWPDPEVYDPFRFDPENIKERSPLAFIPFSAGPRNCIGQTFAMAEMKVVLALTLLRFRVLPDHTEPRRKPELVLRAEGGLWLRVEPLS
Summary of the method: as §1

MDR1 (P-gp) = assay: BBB penetration potential, MDR1-MDCK permeability; format: in vitro ADME; conditions: dog; for Papp A→B at 120 min, 5 μM: apical to basolateral, pH 7.4, read-out: BBB penetration potential MDCK A-B 10−6 cm/s; for Papp B→A at 120 min, 5 μM: basolateral to apical, pH 7.4, read-out: BBB penetration potential MDCK B-A 10−6 cm/s
Procedure: BBB penetration potential assessment data in Table 1 was obtained as follows. MDR1-MDCK cell monolayers were grown to confluence on collagen-coated, microporous membranes in 12-well assay plates. Atenolol, propranolol and digoxin were used as control to assess plate quality. The permeability assay buffer was Hanks' balanced salt solution containing 10 mM HEPES and 15 mM glucose at a pH of 7.4. The buffer in the receiver chamber also contained 1% bovine serum albumin. The dosing solution concentration was 5 μM of test article in the assay buffer. Cell monolayers were dosed on the apical side (A-to-B) or basolateral side (B-to-A) and incubated at 37° C. with 5% CO2 in a humidified incubator. Samples were taken from the donor and receiver chambers at 120 minutes. Each determination was performed in duplicate the flux of lucifer yellow was also measured post-experimentally for each monolayer to ensure no damage was inflicted to the cell monolayers during the flux period. All samples were assayed by LC-MS/MS using electrospray ionization using a PE SCIEX API 4000 spectrometer and total run time of 1 min. Analytical method/conditions were: Liquid Chromatography Column: Waters ACQUITY UPLC BEH Phenyl 30×2.1 mm, 1.7 m; M.P. Buffer: 25 mM ammonium formate buffer, pH 3.5; Aqueous Reservoir (A): 90% water, 10% buffer; Organic Reservoir (B): 90% acetonitrile, 10% buffer; Flow Rate: 0.7 mL/minute; gradient program: 99% A (t=0 min), 1% A (t=0.65 min), 1% A (t=0.75 min), 99% A (t=0.8 min), 99% A (t=1 min); 5 μL injection volume
The apparent permeability (Papp) and percent recovery were calculated as follows: Papp=(dCr/dt)×Vr/(A×CA) (1) Percent Recovery=100×((Vr×Cr^final)+(Vd×Cd^final))/(Vd×CN) (2)
wherein: • dCr/dt is the slope of the cumulative concentration in the receiver compartment versus time in μMs^−1; • Vr is the volume of the receiver compartment in cm^3; • Vd is the volume of the donor compartment in cm^3; • A is the area of the insert (1.13 cm^2 for 12-well); • CA is the average of the nominal dosing concentration and the measured 120 minute donor concentration in μM; • CN is the nominal concentration of the dosing solution in μM; • Cr^final is the cumulative receiver concentration in μM at the end of the incubation period; • Cd^final is the concentration of the donor in μM at the end of the incubation period. Efflux ratio (ER) is defined as Papp (B-to-A)/Papp (A-to-B) Interpretation Brain Penetration Potential Classification: • Papp (A-to-B)≥3.0 and ER<3.0: High • Papp (A-to-B)≥3.0 and 10>ER≥3.0: Moderate • Papp (A-to-B)≥3.0 and ER≥10, or Papp (A-to-B)<3.0 Low

[2] = test system: 20-HETE formation (CYP4) in RLM; assay: Inhibition of 20-HETE formation at 250 or 500 nM in RLM microsomal incubations; format: biochemical, rat; conditions: 500 nM compound; RLM 300 μg/ml
Summary of the method: as §1

[3] = Turbidometric solubility determination; format: physicochemical; conditions: PBS with 1% DMSO, aqueous buffer, kinetic from dmso stock, room temperature
Summary of the method: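 Precipitation was detected as a significant rise in absorbance at 620 nm over background, and this point set the maximum solubility. Compound was tested in PBS with 1% DMSO at final concentrations from 0 to 600 μM, in triplicate, after 2 h of shaking at room temperature.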

[4] = test system: 20-HETE formation (CYP4) in HLM; assay: IC50 determination, 20-HETE formation in HLM; format: biochemical, human; conditions: HLM 300 μg/ml, AA 100 μM, 12 concentrations
Procedure: Microsomal incubations contained HLM, RLM (300 μg/ml), AA (100 μM), NADPH (1 mM) and test compounds at 12 concentrations (0.1 nM-50 μM) in a 1 ml total volume in microsomal incubation buffer (0.12 M potassium phosphate buffer containing 5 mM magnesium chloride). Reaction was started by adding NADPH to the incubates and was carried out at 37° C. in a shaking water bath for 20 min. Reaction was stopped by placing tubes on ice, followed by adding 12.5 μl 20-HETE-d6 as internal standard to each sample. Microsomal incubations were extracted with 3 ml ethyl ether twice, dried down under nitrogen gas and reconstituted in 125 μl 80:20 methanol:deionized H2O for analysis. 20-HETE formation was quantified using the validated UPLC-MS/MS assay described above and normalized by vehicle group. HET0016 (250 nM) was used as positive control. Incubates without NADPH group served as the negative control. IC50 was determined by fitting the dose-response curve using Graphpad Prism nonlinear regression.

[5] = test system: 20-HETE formation (CYP4) in RKM; assay: Inhibition of 20-HETE formation at 250 or 500 nM in RKM microsomal incubations; format: biochemical, rat; conditions: 500 nM compound; RKM 300 μg/ml
Procedure: To screen the inhibitory effects against 20-HETE formation, compounds were screened in HLM, RLM, RKM and rCYP4F2 microsomal incubations. Compounds dissolved in either 100% methanol or 100% DMSO to yield 10 mM stock solution. Microsomal incubations containing HLM, RLM, RKM (300 μg/ml) or rCYP4F2 (25 pmol/mL), AA (100 μM), NADPH (1 mM) treated with test compounds at various concentrations (500 nM or 250 nM) in a 1 ml total volume in incubation buffer (0.12 M potassium phosphate buffer containing 5 mM magnesium chloride). Reaction was started by adding NADPH to the incubates and was carried out at 37° C. in a shaking water bath for 20 min. Reaction was stopped by placing tubes on ice, followed by adding 125 μl 20-HETE-d6 as internal standard to each sample. Microsomal incubations were extracted with 3 ml ethyl ether twice, dried down under nitrogen gas and reconstituted in 125 μl 80:20 methanol:deionized H2O for analysis. 20-HETE formation was quantified using a validated UPLC-MS/MS assay and normalized by vehicle group. Each compound had three replications (n=3). Vehicle group was used as control to calculate percentage of 20-HETE formation rate. HET0016 (250 nM) was used as positive control. Incubates without NADPH group served as the negative control. An Acquity ultra performance LC autosampler (Waters, Milford, MA) was used to isolate 20-HETE on an UPLC BEH C18, 1.7 μm (2.1×100 mm) reversed-phase column (Waters, Milford, MA) protected by a guard column (2.1×5 mm; Waters, Milford, MA) of the same packing material. Column temperature was maintained at 55° C. Mobile phases consisted of 0.005% acetic acid, 5% acetonitrile in deionized water (A) and 0.005% acetic acid in acetonitrile (B). The flow rate for mobile phases is 0.5 ml/min. The initial mixture of mobile phase was 65:35 of A and B. Mobile phase B increased at 0.4 minutes after injection from 35% to 70% in a linear gradient over 4 minutes, and again increased to 95% over 0.5 minutes where it remained for 0.3 minutes. This was followed by a linear return to initial conditions over 0.1 minutes with a 1.5 minute pre-equilibration period prior to the next sample run. Total run time was 6.4 minutes for each injection. Injection volumes were 7.5 μl. Mass spectrometric analysis was carried out using a TSQ Quantum Ultra (Thermo Fisher Scientific, San Jose, CA) triple quadrupole mass spectrometer using heated electrospray ionization (HESI). Mass spectrometer was operated in negative selective reaction monitoring (SRM) mode with unit resolutions at both Q1 and Q3 set at 0.70 Da full width at half maximum. Scan time was set at 0.01 s and collision gas pressure was 1.3 mTorr. Quantitation of 20-HETE by SRM was performed by monitoring the m/z. Analytical data was acquired and analyzed using Xcaliber 3.0 data system (ThermoFinnigan, San Jose, CA).

SMILES | HLM % inh. @ 500 nM [1] | inhibition at 0.5 µM (rCYP4F2) | Papp A→B at 120 min, 5 μM (MDR1 (P-gp)) | Papp B→A at 120 min, 5 μM (MDR1 (P-gp)) | RLM % inh. @ 500 nM [2] | solubility at 2 h ([3]; OD620, read-out: Max Solub) | IC50 [4] | RKM % inh. @ 500 nM [5] | solubility at 2 h ([3]; read-out: Solubility_ug/mL)
Cc1cccc(C2CCN(c3ccn[nH]3)CC2)c1 [Compound 33, 1-(1H-Pyrazol-5-yl)-4-(m-tolyl)piperidine] | 72.00% | 69% |  |  | 12.00% |  | 0.18 µM | 16.00% | 
CC(=O)N(C)c1ccc(C2CCN(c3cn[nH]c3)CC2)c(F)c1 [Compound 69, N-(4-(1-(1H-Pyrazol-4-yl)piperidin-4-yl)-3-fluorophenyl)-N-methylacetamide] | 85.6% | 57.9% | 22.3 ×10⁻⁶ cm/s | 44.4 ×10⁻⁶ cm/s | 27.70% | 304 µM |  |  | 
CC(=O)Nc1ccc(C2CCN(c3ccn[nH]3)CC2)cc1 [Compound 29, N-(4-(1-(1H-Pyrazol-5-yl)piperidin-4-yl)phenyl)acetamide] | 60.00% | 55% |  |  | 38.00% | > 600 µM | 0.17 µM | 7.00% | 171 µg/mL
Cc1ccccc1C1CCN(c2cn[nH]c2)CC1 [Compound 36, 1-(1H-Pyrazol-4-yl)-4-(o-tolyl)piperidine] | 46.00% | 61% |  |  | 0.00% | 752 µM | 0.65 µM | 4.00% | 
COc1ccc(C2CCN(c3cn[nH]c3)CC2)cn1 [Compound 32, 5-(1-(1H-Pyrazol-4-yl)piperidin-4-yl)-2-methoxypyridine] | 59.00% | 67% |  |  | 0.00% | 391 µM | 0.13 µM | 25.00% | 101 µg/mL

Next, values leading:

HLM % inh. @ 500 nM [1] | inhibition at 0.5 µM (rCYP4F2) | Papp A→B at 120 min, 5 μM (MDR1 (P-gp)) | Papp B→A at 120 min, 5 μM (MDR1 (P-gp)) | RLM % inh. @ 500 nM [2] | solubility at 2 h ([3]; OD620, read-out: Max Solub) | IC50 [4] | RKM % inh. @ 500 nM [5] | solubility at 2 h ([3]; read-out: Solubility_ug/mL) | SMILES
86.1% | 78% | 50.4 ×10⁻⁶ cm/s | 48.9 ×10⁻⁶ cm/s | 36.00% | 31 µM |  |  |  | CC(Nc1ccc(C2CCN(c3cn[nH]c3)CC2)cc1)C(F)(F)F (stereo not drawn) [Compound 104, 4-(1-(1H-Pyrazol-4-yl)piperidin-4-yl)-N-(1,1,1-trifluoropropan-2-yl)aniline]
83.1% | 66% |  |  | 19.30% | 353 µM | 0.0474 µM |  |  | O=C(c1ccc(C2CCN(c3cn[nH]c3)CC2)c(F)c1)N1CCCC1 [Compound 81, (4-(1-(1H-Pyrazol-4-yl)piperidin-4-yl)-3-fluorophenyl)(pyrrolidin-1-yl)methanone]
90.30% | 86% | 10.8 ×10⁻⁶ cm/s | 77.5 ×10⁻⁶ cm/s | 62.70% | > 600 µM |  |  |  | O=C1CCCN1Cc1ccc(C2CCN(c3cn[nH]c3)CC2)cc1F [Compound 109, 1-(4-(1-(1H-Pyrazol-4-yl)piperidin-4-yl)-2-fluorobenzyl)pyrrolidin-2-one]
86.40% | 89.3% | 77.4 ×10⁻⁶ cm/s | 70.3 ×10⁻⁶ cm/s | 59.60% | 71 µM |  |  |  | Cc1ccc(CC2CCN(c3cn[nH]c3)CC2)cc1 [Compound 116, 4-(4-Methylbenzyl)-1-(1H-pyrazol-4-yl)piperidine]
